Measured values taken from patent US6737383B1, “Herbicidal oxadiazolidines” (priority 1999, dated 2004).

Key:
wild oat = experiment: Test B pre/postemergence wild oat; assay type: in vivo, Avena fatua; details: Preemergence
How it was run: (§1)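 Response is a visual 0-to-10 score relative to untreated plants, where 0 means no effect and 10 means complete control, taken twelve to sixteen days after application. Treatments went onto soil at planting and onto foliage of 1- to 4-leaf plants, using a surfactant-containing non-phytotoxic solvent.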

surinam grass = experiment: Test B pre/postemergence surinam grass; assay type: in vivo, Brachiaria decumbens; details: Preemergence
How it was run: as §1

rice = experiment: Test B flood test rice; assay type: in vivo, Oryza sativa
How it was run: (§2)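 Plants were grown to the 2-leaf stage before treatment with test chemical, then held in a greenhouse for twelve to sixteen days. Injury was visually rated against untreated controls on a 0–10 scale, where 0 is no effect and 10 is complete control.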

soybean = experiment: Test B pre/postemergence soybean; assay type: in vivo, Glycine max; details: Preemergence
How it was run: as §1

corn = experiment: Test B pre/postemergence corn; assay type: in vivo, Zea mays; details: Preemergence
How it was run: as §1

purple nutsedge = experiment: Test B pre/postemergence purple nutsedge; assay type: in vivo, Cyperus rotundus; details: Preemergence
How it was run: as §1

duck salad = experiment: Test B flood test duck salad; assay type: in vivo, Heteranthera limosa
How it was run: as §2

sugar beet = experiment: Test B pre/postemergence sugar beet; assay type: in vivo, Beta vulgaris; details: Preemergence
How it was run: as §1

blackgrass = experiment: Test B pre/postemergence blackgrass; assay type: in vivo, Alopecurus myosuroides; details: Preemergence
How it was run: as §1

wheat = experiment: Test B pre/postemergence wheat; assay type: in vivo, Triticum aestivum; details: Preemergence
How it was run: as §1

rape = experiment: Test B pre/postemergence rape; assay type: in vivo, Brassica napus; details: Preemergence
How it was run: as §1

cocklebur = experiment: Test B pre/postemergence cocklebur; assay type: in vivo, Xanthium strumarium; details: Preemergence
How it was run: as §1

morningglory = experiment: Test B pre/postemergence morningglory; assay type: in vivo, Ipomoea hederacea; details: Preemergence
How it was run: as §1

velvetleaf = experiment: Test B pre/postemergence velvetleaf; assay type: in vivo, Abutilon theophrasti; details: Preemergence
How it was run: as §1

giant foxtail = experiment: Test B pre/postemergence giant foxtail; assay type: in vivo, Setaria faberii; details: Preemergence
How it was run: as §1

smallflower flatsedge = experiment: Test B flood test smallflower flatsedge; assay type: in vivo, Cyperus difformis
How it was run: as §2

crabgrass = experiment: Test B pre/postemergence crabgrass; assay type: in vivo, Digitaria sanguinalis; details: Preemergence
How it was run: as §1

bamyardgrass = experiment: Test B flood test barnyardgrass; assay type: in vivo, Echinochloa crus-galli
How it was run: as §2

pigweed = experiment: Test B pre/postemergence pigweed; assay type: in vivo, Amaranthus retroflexus; details: Preemergence
How it was run: as §1

bedstraw = experiment: Test B pre/postemergence bedstraw; assay type: in vivo, Galium aparine; details: Preemergence
How it was run: as §1

maize hybrid P33G26 = experiment: Test G maize injury with safener-treated seed; details: in vivo
Procedure: In soil-containing pots were planted seeds of maize hybrid P33G26 that was previously treated with dichlomid, fenchlorazole-ethyl, and naphthalic anhydride (or no safener). The soil surface was then treated with several rates of Compound 131 or Compound 146 dissolved in a non-phytotoxic solvent using a flat-fan sprayer calibrated to deliver 310 L/ha. Treatmemtes were replicated 4 or 5 times. The treated and untreated plants were allowed to grow in a greenhouse using supplementary artificial lighting with a day-length of 14 hours, with the temperature maintained at about 27° C. during the day and 24° C. during the night. Plants were kept watered with a dilute balanced fertilizer solution.
At 28 days after application, the treated plants were compared with untreated controls and vissually evaluated.

[1] = Rate 125 g/ha, scale of 0 to 10 where 0 is no effect and 10 is complete control
[2] = Rate 250 g/ha, scale 0 (no effect) to 10 (complete control)
[3] = Rate 500 g/ha, scale 0 to 10 (0 no effect, 10 complete control)
[4] = Rate 1000 g/ha, scale 0 to 10 (0 no effect, 10 complete control)
[5] = Pre-emergence, Rate 62 g/ha, scale 0 to 10, 0 is no effect, 10 is complete control
[6] = Rate 125 g/ha, Pre-emergence section (flood test species), scale 0 to 10, 0 no effect, 10 complete control
[7] = Rate 250 g/ha, Pre-emergence (flood test species), scale 0 to 10, 0 is no effect, 10 is complete control
[8] = Rate 500 g/ha, Pre-emergence section of Table B, 0 to 10 scale (0 no effect, 10 complete control)

SMILES: COC(=O)C(c1ccccc1)n1c(=O)on(C(=O)N(c2ccc(Cl)cc2)C(C)C)c1=O (stereo not shown) [Compound 724]
- Plant response rating, Wild oats (wild oat; [1]): 0
- Wild oats plant response rating (wild oat; [2]): 0
- Wild oats plant response rating (wild oat; [3]): 0
- Plant response rating, Wild oats (wild oat; [4]): 0
- Plant response rating, B. signalgrass (surinam grass; [1]): 0
- B. signalgrass plant response rating (surinam grass; [2]): 0
- B. signalgrass plant response rating (surinam grass; [3]): 0
- Plant response rating, B. signalgrass (surinam grass; [4]): 0
- Rice plant response rating (rice; [5]): 0
- Rice plant response rating (rice; [6]): 0
- Rice plant response rating (rice; [7]): 0
- Rice plant response rating (rice; [8]): 0
- Plant response rating, Soybean (soybean; [1]): 0
- Soybean plant response rating (soybean; [2]): 0
- Soybean plant response rating (soybean; [3]): 0
- Plant response rating, Soybean (soybean; [4]): 0
- Plant response rating, Corn (corn; [1]): 0
- Corn plant response rating (corn; [2]): 0
- Corn plant response rating (corn; [3]): 0
- Plant response rating, Corn (corn; [4]): 0
- Plant response rating, Nutsedge (purple nutsedge; [1]): 0
- Nutsedge plant response rating (purple nutsedge; [2]): 0
- Nutsedge plant response rating (purple nutsedge; [3]): 0
- Plant response rating, Nutsedge (purple nutsedge; [4]): 0
- Ducksalad plant response rating (duck salad; [5]): 0
- Ducksalad plant response rating (duck salad; [6]): 0
- Ducksalad plant response rating (duck salad; [7]): 0
- Ducksalad plant response rating (duck salad; [8]): 0
- Plant response rating, Sugarbeets (sugar beet; [1]): 0
- Sugarbeets plant response rating (sugar beet; [2]): 0
- Sugarbeets plant response rating (sugar beet; [3]): 0
- Plant response rating, Sugarbeets (sugar beet; [4]): 0
- Plant response rating, Blackgrass (blackgrass; [1]): 0
- Blackgrass plant response rating (blackgrass; [2]): 0
- Blackgrass plant response rating (blackgrass; [3]): 0
- Plant response rating, Blackgrass (blackgrass; [4]): 2
- Plant response rating, Wheat (wheat; [1]): 0
- Wheat plant response rating (wheat; [2]): 0
- Wheat plant response rating (wheat; [3]): 0
- Plant response rating, Wheat (wheat; [4]): 0
- Plant response rating, Rape (rape; [1]): 0
- Rape plant response rating (rape; [2]): 0
- Rape plant response rating (rape; [3]): 0
- Plant response rating, Rape (rape; [4]): 0
- Plant response rating, Cocklebur (cocklebur; [1]): 0
- Cocklebur plant response rating (cocklebur; [2]): 0
- Cocklebur plant response rating (cocklebur; [3]): 0
- Plant response rating, Cocklebur (cocklebur; [4]): 0
- Plant response rating, Morningglory (morningglory; [1]): 0
- Morningglory plant response rating (morningglory; [2]): 0
- Morningglory plant response rating (morningglory; [3]): 0
- Plant response rating, Morningglory (morningglory; [4]): 0
- Plant response rating, Velvetleaf (velvetleaf; [1]): 0
- Velvetleaf plant response rating (velvetleaf; [2]): 0
- Velvetleaf plant response rating (velvetleaf; [3]): 0
- Plant response rating, Velvetleaf (velvetleaf; [4]): 0
- Plant response rating, Giant foxtail (giant foxtail; [1]): 0
- Giant foxtail plant response rating (giant foxtail; [2]): 7
- Giant foxtail plant response rating (giant foxtail; [3]): 9
- Plant response rating, Giant foxtail (giant foxtail; [4]): 10
- S. Flatsedge plant response rating (smallflower flatsedge; [5]): 0
- S. Flatsedge plant response rating (smallflower flatsedge; [6]): 0
- S. Flatsedge plant response rating (smallflower flatsedge; [7]): 0
- S. Flatsedge plant response rating (smallflower flatsedge; [8]): 0
- Plant response rating, Crabgrass (crabgrass; [1]): 3
- Crabgrass plant response rating (crabgrass; [2]): 7
- Crabgrass plant response rating (crabgrass; [3]): 7
- Plant response rating, Crabgrass (crabgrass; [4]): 9
- Barnyardgrass plant response rating (bamyardgrass; [5]): 0
- Barnyardgrass plant response rating (bamyardgrass; [6]): 0
- Barnyardgrass plant response rating (bamyardgrass; [7]): 0
- Barnyardgrass plant response rating (bamyardgrass; [8]): 0
- Plant response rating, Redroot pigweed (pigweed; [1]): 0
- Redroot pigweed plant response rating (pigweed; [2]): 0
- Redroot pigweed plant response rating (pigweed; [3]): 0
- Plant response rating, Redroot pigweed (pigweed; [4]): 3
- Plant response rating, Bedstraw (bedstraw; [1]): 0
- Bedstraw plant response rating (bedstraw; [2]): 0
- Bedstraw plant response rating (bedstraw; [3]): 0
- Plant response rating, Bedstraw (bedstraw; [4]): 0

SMILES: O=C1OC(=O)c2cccc3cccc1c23 [naphthalic anhydride, reference compound]
- Effect of safener seed treatment on corn germination (maize hybrid P33G26): severely inhibited corn germination
- Safening effect on maize injury (maize hybrid P33G26): safened against the herbicide damage
